Assay results from US7473688B2, “Indolobenzazepine HCV NS5B inhibitors” (Bristol-Myers Squibb Company, priority 2005, dated 2009).
Read-outs that look alike come from different tables or passages of the source.

Experiments:
[1] = tested on: HCV replicon; experiment: HCV replicon FRET assay; assay type: cell-based; conditions: Hepatitis C virus, FRET assay, read-out: EC50*
Summary of the method: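 HCV replicon cells, with or without Renilla luciferase reporter, incubated with titrated compounds at 37 °C; Alamar blue read for cytotoxicity. NS3 protease activity read from lysates with 20 μM EDANS/DABCYL FRET peptide (340/490 nm, kinetic), or by Dual-Glo luciferase. Background from highest protease-inhibitor wells; EC50 = 50% signal reduction.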

[2] = molecular target: T1, HCV NS5B (Hepatitis C virus genotype 1b, UniProt Q9WMX2); experiment: HCV NS5B RdRp enzyme assay (preincubation protocol); assay type: biochemical
T1 construct: The protein was expressed with an 18 amino acid C-terminal truncation to enhance the solubility; made in house; host or cells: E. coli BL21 (DE3), pET21a
T1 sequence (Q9WMX2 2420-2992): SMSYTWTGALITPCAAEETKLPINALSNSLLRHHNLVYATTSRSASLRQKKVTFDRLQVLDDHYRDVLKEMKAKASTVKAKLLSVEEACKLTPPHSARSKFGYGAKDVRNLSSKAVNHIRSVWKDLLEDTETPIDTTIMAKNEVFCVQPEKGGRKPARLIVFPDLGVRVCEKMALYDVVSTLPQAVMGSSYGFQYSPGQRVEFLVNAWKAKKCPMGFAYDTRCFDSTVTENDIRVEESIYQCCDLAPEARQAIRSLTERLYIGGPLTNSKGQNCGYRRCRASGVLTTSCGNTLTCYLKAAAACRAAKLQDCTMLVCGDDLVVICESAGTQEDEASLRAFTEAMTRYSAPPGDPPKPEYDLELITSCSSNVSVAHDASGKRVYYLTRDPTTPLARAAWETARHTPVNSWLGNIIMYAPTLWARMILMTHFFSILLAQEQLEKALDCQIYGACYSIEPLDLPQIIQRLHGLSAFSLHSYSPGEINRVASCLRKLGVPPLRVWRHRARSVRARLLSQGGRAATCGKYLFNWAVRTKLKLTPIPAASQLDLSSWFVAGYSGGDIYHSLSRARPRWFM
Summary of the method: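 C-terminally truncated (Δ18) genotype 1b NS5B from E. coli, 14 nM, added to compound, then polyA template (0.2 nM), 3H-UTP (0.29 μM) and oligo-dT12 primer precaptured on streptavidin SPA beads. 4 h at 30 °C, pH 7.5, 2% DMSO; SPA readout; IC50 from seven concentrations by logistic fit.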

| Structure (SMILES) | EC50 ([1]; Table 1) | IC50 ([2]; Table 1, read-out: IC50*) | EC50 ([1]; Table 1a) | IC50 ([2]; Table 1a, read-out: IC50*) | other results |
| --- | --- | --- | --- | --- | --- |
| CN(C)S(=O)(=O)NC(=O)c1ccc2c(C3CCCCC3)c3n(c2c1)CC(C(=O)N1CCC(N2CCOCC2)CC1)=Cc1cc(OCc2ccccc2)ccc1-3 [drawing 135] | 70 to 1000 nM | 10 to 1000 nM | – | – | – |
| CN(C)S(=O)(=O)NC(=O)c1ccc2c(C3CCCCC3)c3n(c2c1)CC(C(=O)N1CCCC(=O)N1)=Cc1ccccc1-3 [drawing 138] | 70 to 1000 nM | 10 to 1000 nM | – | – | – |
| CN(C)S(=O)(=O)NC(=O)c1ccc2c(C3CCCCC3)c3n(c2c1)CC(NC(=O)N1CCOCC1)Cc1ccccc1-3 (stereo not drawn) [drawing 141] | 70 to 1000 nM | 10 to 1000 nM | – | – | – |
| C[C@@H]1CN(C(=O)NC2Cc3ccccc3-c3c(C4CCCCC4)c4ccc(C(=O)O)cc4n3C2)C[C@H](C)O1 (stereo partly drawn) [drawing 143] | 70 to 1000 nM | 10 to 1000 nM | – | – | – |
| CC(=O)NN(C)C(=O)C1=Cc2ccccc2-c2c(C3CCCCC3)c3ccc(C(=O)O)cc3n2C1 [drawing 154] | 1000 to 10000 nM | 10 to 1000 nM | – | – | – |
| COc1ccc2c(c1)C=C(C(=O)N(C)CC(=O)N(C)C)Cn1c-2c(C2CCCCC2)c2ccc(C(=O)NS(=O)(=O)N(C)C)cc21 [drawing 162] | 70 to 1000 nM | 10 to 1000 nM | – | – | – |
| CN(C)S(=O)(=O)NC(=O)c1ccc2c(C3CCCCC3)c3n(c2c1)CC(C(=O)N1CCC(F)CC1)=Cc1ccccc1-3 [drawing 196] | 70 to 1000 nM | 10 to 1000 nM | – | – | – |
| O=C(NCc1cnn[nH]1)c1ccc2c(C3CCCCC3)c3n(c2c1)CC(C(=O)N1CCC(N2CCOCC2)CC1)=Cc1ccccc1-3 [drawing 203] | 1000 to 10000 nM | 10 to 1000 nM | – | – | – |
| CN(C)S(=O)(=O)NC(=O)c1ccc2c(C3CCCCC3)c3n(c2c1)CC(C(=O)N1CCCC(=O)N1)=Cc1ccccc1-3 [drawing 236] | – | – | 30 to 1000 nM | 10 to 1000 nM | – |
| COc1ccc2c(c1)C=C(C(=O)N1CCOCC1)Cn1c-2c(C2CCCCC2)c2ccc(C(=O)NS(=O)(=O)N3CCOCC3)cc21 [drawing 237] | – | – | 30 to 1000 nM | 10 to 1000 nM | – |
| COc1ccc2c(c1)C=C(C(=O)N(C)CC(=O)N(C)C)Cn1c-2c(C2CCCCC2)c2ccc(C(=O)NS(=O)(=O)N(C)C)cc21 [drawing 238] | – | – | 30 to 1000 nM | 10 to 1000 nM | – |
| COc1ccc2c(c1)C=C(C(=O)N1CCN(CC(F)(F)F)CC1)Cn1c-2c(C2CCCCC2)c2ccc(C(=O)NS(=O)(=O)N(C)C)cc21 [drawing 390] | – | – | 30 to 1000 nM | 10 to 1000 nM | – |
| O=C(NS(=O)(=O)N1CCN(CC(F)(F)F)CC1)c1ccc2c(C3CCCCC3)c3n(c2c1)CC(C(=O)N1CCOCC1)=Cc1ccccc1-3 [drawing 391] | – | – | 30 to 1000 nM | 10 to 1000 nM | – |
| COc1ccc2c(c1)C=C(C(=O)N1CCN(CC(F)(F)F)CC1)Cn1c-2c(C2CCCCC2)c2ccc(C(=O)NS(=O)(=O)N(C)C)cc21 [drawing 393] | – | – | – | – | EC50 ([1]; Table 1b): 30 to 1000 nM; IC50 ([2]; Table 1b, read-out: IC50*): 20 to 1000 nM |
| O=C(NS(=O)(=O)N1CCN(CC(F)(F)F)CC1)c1ccc2c(C3CCCCC3)c3n(c2c1)CC(C(=O)N1CCOCC1)=Cc1ccccc1-3 [drawing 395] | – | – | – | – | EC50 ([1]; Table 1b): 30 to 1000 nM; IC50 ([2]; Table 1b, read-out: IC50*): 20 to 1000 nM |
